Data set [1] has as its system BVDV. The data set can be described thus: microbe, parasite or virus in culture. The class given is cell-based, bovine viral diarrhea virus (strain NADL). Particulars: read-out: EC50 BVDV.
Data set [2] has as its system BVDV. The data set can be described thus: Virucidal assay against BVDV virions. Details: species or system bovine viral diarrhea virus. As to conditions: 100 µM, 2 h, 4 and 37 °C.
Data set [3] relates to BVDV. The class given is cell-based, bovine viral diarrhea virus. Particulars: 100, 20, 4, 0.8 µM.
The subject of data set [4] is MDBK cells. The data set is described as follows: Cytotoxicity in mock-infected MDBK cells (MTT). Particulars: for CC50: read-out: CC50 MDBK, mock-infected MDBK cells, MTT, pure compounds.
In data set [5] the test system is CV-B5. The data set is described as follows: organism not typed. Type of data set: cell-based, coxsackie type B5. Particulars: Vero 76, read-out: EC50 CV-B5.
Data set [6] is described as follows: in vitro. As to conditions: monkey (Cercopithecus aethiops).
A short description of data set [7]: Cytotoxicity in mock-infected MDBK cells (MTT). Particulars: bovine (Bos taurus), mock-infected MDBK cells (Madin-Darby bovine kidney).
In data set [8] the test system is RSV. The data set is described as follows: microbe, parasite or virus in culture. The class given is cell-based, human respiratory syncytial virus (strain A2). Particulars: human respiratory syncytial virus, Vero 76, read-out: EC50 RSV.
A short description of data set [9]: in vitro. As to conditions: human.
Data set [10] relates to DENV-2. Type of data set: cell-based, dengue virus (DENV-2).
Data set [11] concerns WNV. Type of data set: cell-based, west Nile virus.
In data set [12] the test system is YFV. Type of data set: cell-based, yellow fever virus (strain 17-D).
Data set [13] concerns BHK cells.
Data set [14] deals with VV. The class given is cell-based, vaccinia virus.
Data set [15] concerns Vero-76 cells.
[16] abbreviates: Bovine viral diarrhea virus isolates and strains, MDBK.

Consider 13 compounds from paper PMC8066157, “Bovine Viral Diarrhea Virus (BVDV): A Preliminary Study on Antiviral Properties of Some Aromatic and Medicinal Plants” (Pathogens, 2021).

Entries after “also recorded” stand apart in the source; their conditions may differ. Like-named read-outs stand apart in the source and are kept apart here. Bounds are passed on as bounds.

For `C/C1=C\CC/C(C)=C/CC(C)(C)/C=C/C1` [α-Humulene], the EC50 in [1] amounted to 36 ± 0.5 µM. In addition, the “Virucidal activity (BVDV titer of treated vs untreated virus)” value in [2] is “No significant differences”. Besides, the “Reduction of BVDV titer (yield reduction)” value in data set [3] was “dose-dependent reduction of virus titer; also recorded: reduce the viral BVDV titer in vitro assays in a dose-dependent manner”. For the same compound, the “Cytotoxicity (in words)” value in data set [4] (MDBK cells) is “non-cytotoxic”. The CC50 in data set [4] was more than 100 µM.
With `Cc1cc(CCCOc2c(C)cc(-c3noc(C(F)(F)F)n3)cc2C)on1` [Pleconaril], in data set [5], the EC50 came out at 5 nM. In data set [6], this compound had a CC50 of more than 100 µM.
`C=C1CC/C=C(\C)CC[C@@H]2[C@@H]1CC2(C)C` [Trans-Caryophyllene]: the EC50 in [1] (setting [16]) was 90 ± 1 µM. The compound further yielded a CC50 in data set [7] of more than 100 µM.
In the case of `O=c1cnn([C@@H]2O[C@H](CO)[C@@H](O)[C@H]2O)c(=O)[nH]1` [6-Aza-Uridine], the EC50 in data set [8] turned out to be 1000 nM. The same compound yielded a CC50 in [6] of 4 µM.
As to `C=C(C)[C@H]1CC=C(C)CC1` [Limonene], the half-maximal effective concentration (EC50) in [1] is more than 100 µM. The CC50 in data set [4] is more than 100 µM.
With `O=C1Nc2ccc(Cl)cc2[C@@](C#CC2CC2)(C(F)(F)F)O1` [Efavirenz], in data set [9], the CC50 was 40 µM.
Take `C=C1C2CCC(C2)C1(C)C` (centres unmarked) [Camphene]: the EC50 in data set [1] (setting [16]) is more than 100 µM. Besides, the CC50 in data set [7] was more than 100 µM.
`C[C@@]1(O)[C@H](O)[C@@H](CO)O[C@H]1n1cnc2c(=O)[nH]c(N)nc21` [2′-C-Me-Guanosine]: the half-maximal effective concentration (EC50) came to 1.6 ± 0.2 µM in [1], 300 nM in data set [10], 400 nM in data set [11] and 1200 nM in data set [12]. For the same compound, the CC50 in [13] was 60 µM; in data set [4], more than 100 µM.
In data set [14], `COc1c(C)c2c(c(O)c1C/C=C(\C)CCC(=O)O)C(=O)OC2` [Mycophen.Ac.] showed an EC50 of 1500 nM. Further, the CC50 in data set [15] is 20 µM.
On to `C=C1CCC2CC1C2(C)C` (stereo not drawn) [β-Pinene], for which the EC50 in [1] (setting [16]) was more than 100 µM. This compound had a CC50 in [7] of more than 100 µM.
As for `CC12CCC(CC1)C(C)(C)O2` [1,8-Cineole], the 50% effective concentration (EC50) in data set [1] (setting [16]) is more than 100 µM. Also, the CC50 in data set [7] is more than 100 µM.
In the case of `CC12CCC(CC1=O)C2(C)C` (centres unmarked) [Camphor], the concentration for a half-maximal effect (EC50) in data set [1] (setting [16]) was more than 100 µM. In [7], the CC50 is more than 100 µM.
Turning to 2+β Thujone, the EC50 in [1] is more than 100 µM. In addition, the CC50 in [4] was more than 100 µM.

Broadly, the EC50 is the concentration giving half of the maximal effect.
